# Test results taken from US20220259265A1, “Inhibitors and Use Thereof in Cancer Treatment” (The University of Sydney, priority 2019, published 2022).
# Ends that are not written are not given here. Peptide text beside a SMILES is read from it. * marks the point of attachment. 5TAMRA = CN(C)c1ccc2c(c1)Oc1cc(N(C)C)ccc1C21OC(=O)c2cc(C(=O)*)ccc21
# Tests used:
# [1] = system: IGFBP-3-NONO complexes in MDA-MB-468 cells; experiment: Proximity ligation assay (PLA), MDA-MB-468 cells; type: cell-based, human
# Procedure: (§1) PLA was performed using the Duolink Detection Kit (Olink Bioscience Uppsala, Sweden) as previously described (Lin M Z et al., Oncogene, 2014, 33, 85-96). Briefly, cells were grown on 8-mm glass coverslips to 50% confluency, treated, and prepared for microscopy by fixing, permeabilizing and blocking. Coverslips were incubated with primary antibody pairs (raised in different species) targeting the proteins under investigation overnight at 4° C. […]; NONO (as above) and […]; IGFBP-3 (as above), 1:100. This was followed by incubation with PLA probes MINUS and PLUS for 1 h at 37° C., probe ligation for 30 min at 37° C. and amplification over 100 min at 37° C. Interactions were detected as amplified far-red signals using a Leica TCS SP5 confocal microscope (Leica Microsystems, Wetzlar, Germany) and quantitated using Image J software.
# [2] = system: IGFBP-3-NONO complexes in HCC1806 cells; experiment: Proximity ligation assay (PLA), HCC1806 cells; type: cell-based, human
# Procedure: as §1
# [3] = system: DNA end-joining activity in MDA-MB-468 cells; experiment: DNA end-joining assay, nuclear extracts of treated MDA-MB-468 cells; type: cell-based, human
# Procedure: (§2) Nuclear extraction and end-joining assay was performed as previously described (Andrin C et al., J Blot Chem., 2004, 279, 25017-25023; Andrin C et al., Nucleus., 2012, 3, 384-395) with slight modifications. […] After isolation of nuclei by centrifugation through a buffer containing 300 mM sucrose, the washed nuclear pellet was extracted into high-salt buffer (20 mM Hepes, pH 7.5, 25% glycerol, 420 mM NaCl, 0.2 mM EDTA, 1.5 mM MgCl2) for 30 min on ice, and insoluble material was removed by centrifugation. The soluble nuclear extract was used in the end-joining assay. Restriction enzymes NheI and EcoRI (New England Biolabs, Ipswich, Mass., USA) were used to digest a EGFP-C1 plasmid (Clontech, Mountain View, Calif., USA) to generate a DNA fragment of 4 kb with non-homologous ends. The linearized plasmid was separated by 0.8% agarose gel electrophoresis, purified using a DNA gel extraction kit (Qiagen), and used as the substrate for end-joining assays. Nuclear extract (2 μg) was mixed with end-joining assay buffer (7.5 mM Tris pH 8.0, 0.2 mM CaCl2, 10 mM MgCl2, 50 mM KCl, 1.2 mM ATP and 0.5 mM DTT) and allowed to stand for 30 min at 22° C. Repair was initiated by adding 100 ng of prepared linearized DNA and incubated at 25° C. for 30 min, stopped by the addition of 0.5 M EDTA, 0.5% SDS and 10 mg/mL Proteinase K. DNA bands were separated on a 0.7% agarose gel, stained with SYBR Gold (Life Technologies), and visualized on a BioRad ChemiDoc imaging system.
# [4] = system: γH2AX (DNA double-strand breaks) in MDA-MB-468 cells; experiment: γH2AX immunofluorescence, MDA-MB-468 cells; type: cell-based, human; settings: olaparib 10 μM or veliparib 20 μM pre-treatment, etoposide 1 h (T0), 4 h recovery (T4)
# Procedure: (§3) The human basal-like triple negative breast cancer (TNBC) cell lines MDA-MB-468 and HCC1806 were obtained from ATCC, Manassas, Va. and maintained in RPMI 1640 medium containing 5% FBS and 10 μg/mL bovine insulin under standard conditions. Cryopreserved stocks were established within 1 month of receipt, and fresh cultures for use in experiments were established from these stocks every 2 to 3 months.
# (§4) Cells grown on 8-mm glass coverslips were washed three times with PBS, fixed with 4% paraformaldehyde for 15 min, permeabilized with 0.2% Triton X-100 for 5 min and blocked with 2% BSA for 1 h. Cells were then incubated with rabbit anti-phospho-histone γH2A.X (Ser139) (1:200; Cell Signaling Technology, #9718) overnight at 4° C., washed, and further incubated with anti-rabbit secondary antibody, tagged with Alexa Fluor 594 (Life Technologies, Carlsbad, Calif., USA). For controls, cells were treated with isotype-matched IgG from the same species. Slides were mounted using ProLong Gold Antifade Reagent (Life Technologies). […] Data were calculated from three replicate experiments.
# [5] = system: γH2AX (DNA double-strand breaks) in HCC1806 cells; experiment: γH2AX immunofluorescence, HCC1806 cells; type: cell-based, human; settings: olaparib 10 μM or veliparib 20 μM pre-treatment, etoposide 1 h (T0), 4 h recovery (T4)
# Procedure: as §3, §4
# [6] = system: DNA end-joining activity in HCC1806 cells; experiment: DNA end-joining assay, nuclear extracts of treated HCC1806 cells; type: cell-based, human
# Procedure: as §2, with “Repair was initiated by adding 100 ng of prepared linearized DNA and incubated at 25° C. for 30 min, stopped by the addition of 0.5 M EDTA, 0.5% SDS and 10 mg/mL Proteinase K. DNA bands were separated on a 0.7% agarose gel, stained with SYBR Gold (Life Technologies), and visualized on a BioRad ChemiDoc imaging system.” left out
# [7] = system: HCC1806 breast cancer cells; experiment: Nuclear uptake of 5-TAMRA-labelled peptide, confocal microscopy (fixed and live cell imaging); type: cell-based, human
# Procedure: The peptide was synthesised with the fluorescent dye 5-TAMRA (5-carboxytetramethyl-rhodamine) covalently bound at its amino-terminus. Since under some circumstances the fixation of cells prior to imaging may introduce artefacts, experiments were performed to detect the localisation of the peptide both with and without fixation of the cells. […] At the indicated time points, cells were washed three times with PBS, fixed with 4% paraformaldehyde for 15 min, washed three times and mounted on slides using ProLong Gold Antifade Reagent containing the nuclear stain DAPI (Life Technologies). Confocal fluorescence images were captured with a Leica TCS SP5 confocal laser scanning microscope (Leica Microsystems, Wetzlar, Germany). Live cell imaging (FIG. 8b): HCC1806 cells were plated in an 8-well chamber slide (Nunc Lab-Tek, Sigma Aldrich); 0.1 mg/mL Hoechst nuclear stain (Life Technologies) was added to the cells for 15 mins and imaged (0 min time point) using Leica TCS SP5 confocal microscope. […] Images were taken at the times indicated.
# [8] = biological target: T1, IGFBP-3 complexes with NONO (NONO/SFPQ) in MDA-MB-468 cells (Homo sapiens, UniProt Q15233); experiment: Co-immunoprecipitation with IGFBP-3-Fab beads and western blotting, MDA-MB-468 cells; type: cell-based; settings: 24 h preincubation with veliparib 20 μM or olaparib 10 μM prior to 20 μM etoposide
# T1 construct: endogenous in cells; host or cells: MDA-MB-468; HCC1806
# T1 sequence (Q15233 1-471): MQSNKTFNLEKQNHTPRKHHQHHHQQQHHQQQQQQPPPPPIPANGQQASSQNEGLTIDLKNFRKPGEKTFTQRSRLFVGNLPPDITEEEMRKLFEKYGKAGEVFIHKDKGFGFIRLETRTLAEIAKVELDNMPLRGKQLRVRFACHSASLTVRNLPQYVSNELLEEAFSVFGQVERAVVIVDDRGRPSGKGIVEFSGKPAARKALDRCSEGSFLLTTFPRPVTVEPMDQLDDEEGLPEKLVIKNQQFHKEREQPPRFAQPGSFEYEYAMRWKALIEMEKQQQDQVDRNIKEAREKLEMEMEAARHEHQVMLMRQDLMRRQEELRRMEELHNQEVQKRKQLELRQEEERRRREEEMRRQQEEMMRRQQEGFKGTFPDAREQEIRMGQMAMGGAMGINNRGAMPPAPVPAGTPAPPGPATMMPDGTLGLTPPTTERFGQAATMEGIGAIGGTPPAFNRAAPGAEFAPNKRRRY
# T1 sequence (P23246 1-707 partner): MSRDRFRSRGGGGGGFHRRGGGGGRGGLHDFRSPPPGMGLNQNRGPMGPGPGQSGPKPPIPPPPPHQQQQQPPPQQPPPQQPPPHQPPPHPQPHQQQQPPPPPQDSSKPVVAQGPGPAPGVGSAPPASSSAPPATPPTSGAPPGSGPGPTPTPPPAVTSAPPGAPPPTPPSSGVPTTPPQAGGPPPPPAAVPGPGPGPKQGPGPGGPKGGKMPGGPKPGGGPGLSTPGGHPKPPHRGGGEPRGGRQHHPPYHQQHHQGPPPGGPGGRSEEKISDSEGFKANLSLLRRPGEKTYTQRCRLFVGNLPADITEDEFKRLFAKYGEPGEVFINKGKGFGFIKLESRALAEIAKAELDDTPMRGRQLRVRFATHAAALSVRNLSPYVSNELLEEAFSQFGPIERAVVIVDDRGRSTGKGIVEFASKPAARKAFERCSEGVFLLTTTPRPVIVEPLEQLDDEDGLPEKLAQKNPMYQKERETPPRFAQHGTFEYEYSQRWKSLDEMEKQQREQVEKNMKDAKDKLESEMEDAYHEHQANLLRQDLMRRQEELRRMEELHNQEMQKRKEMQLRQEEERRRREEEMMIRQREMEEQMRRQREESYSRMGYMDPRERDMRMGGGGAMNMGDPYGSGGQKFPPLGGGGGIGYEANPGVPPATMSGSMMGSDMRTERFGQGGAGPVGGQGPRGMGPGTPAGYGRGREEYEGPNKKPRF
# Procedure: as §3
# [9] = system: HCC1806 breast cancer cells; experiment: 14-day colony formation or clonogenic survival assay; type: cell-based, human; settings: veliparib 5 μM
# Procedure: HCC1806 cells (500 cells/well) were plated in 6-well plates for 24 h prior to being treated with or without 5 μM of PARPi (veliparib) for a further 24 h. […] Colonies were washed with PBS and stained using 0.5% Crystal Violet (Sigma Aldrich) in 20% methanol for 30 min prior to rinsing with water. Colonies, defined as clusters of at least 30 cells, were imaged and counted with an AID vSpot Spectrum imager (AutoImmun Diagnostika GmbH, Strassberg, Germany).
# The 14-day colony formation or clonogenic survival assay measures the ability of cells to survive 2 days of chemotherapy-induced DNA damage, and form colonies of at least 30 cells over the next 12 days. […] The purpose was to find conditions under which the cells become more sensitive to this low dose of chemotherapy.
# [10] = system: γH2AX signal in MDA-MB-468 cells; experiment: γH2AX response to etoposide after peptide incubation (blot), MDA-MB-468 cells; type: cell-based, human; settings: 16 h incubation with peptide at 10 μM, 25 μM etoposide
# Procedure: (§5) An elevated γH2AX signal is indicative of sustained DNA damage (i.e. inhibition of DNA repair) compared to the control cells. Peptide #66 was also evaluated in the presence of PARP inhibitors, veliparib (ABT-888) and olaparib (Lynparza). In FIG. 5e and FIG. 5f, the γH2AX signal in the absence of peptide #66 is expressed as 100%, and bars represent the ratio of γH2AX signal in the presence of the peptide, to that in its absence.
# [11] = system: γH2AX signal in HCC1806 cells; experiment: γH2AX response to etoposide after peptide incubation (blot), HCC1806 cells; type: cell-based, human; settings: 16 h incubation with peptide at 10 μM, 25 μM etoposide
# Procedure: as §5
# [12] = 20 μM veliparib or 10 μM olaparib 24 h, then 20 μM etoposide 2 h
# [13] = 24 h preincubation with 20 μM veliparib, 2 h after 20 μM etoposide
molecule,measurement,setting,value
COc1cc([C@@H]2c3cc4c(cc3[C@@H](O[C@@H]3O[C@@H]5CO[C@@H](C)O[C@H]5[C@H](O)[C@H]3O)[C@H]3COC(=O)[C@H]23)OCO4)cc(OC)c1O [etoposide],Time of peak interaction between IGFBP-3 and NONO (PLA),"[1]; 20 μM etoposide, 0 to 4 h",~2 h
same,Time of peak interaction between IGFBP-3 and NONO (PLA),"[2]; 20 μM etoposide, 0 to 4 h",~2 h
same,Activity in direct DNA end-joining assay,"[3]; 20 μM etoposide 2 h, nuclear extracts (FIG. 4e)",increased activity
O=C(c1cc(Cc2n[nH]c(=O)c3ccccc23)ccc1F)N1CCN(C(=O)C2CC2)CC1 [olaparib],Effect on loss of γH2AX signal over 4 h recovery (DSB repair),[4],significantly prevented the loss of γH2AX signal
same,Effect on loss of γH2AX signal over 4 h recovery (DSB repair),[5],significantly prevented the loss of γH2AX signal
same,Inhibition of end joining activity,[3]; [12],approximately 50%
same,Inhibition of end joining activity,[6]; [12],approximately 50%
CC(C)C[C@H](NC(=O)[C@H](Cc1c[nH]cn1)NC(=O)c1ccc2c(c1)C(=O)OC21c2ccc(N(C)C)cc2Oc2cc(N(C)C)ccc21)C(=O)N[C@@H](CCCCN)C(=O)N[C@@H](Cc1ccccc1)C(=O)N[C@@H](CC(C)C)C(=O)N[C@@H](CC(N)=O)C(=O)N[C@H](C(=O)N[C@@H](CC(C)C)C(=O)N[C@@H](CO)C(=O)N1CCC[C@H]1C(=O)N[C@@H](CCCNC(=N)N)C(=O)NCC(=O)O)C(C)C [peptide #66 labelled with 5-TAMRA] (5TAMRA-HLKFLNVLSPRG-OH),Time of peak colocalization of labelled peptide and nuclei,"[7]; fixed cell imaging, or 10 μM labelled peptide",30 min
same,Association of labelled peptide with cell nuclei,"[7]; live cell imaging, 2.5 μM or 10 μM labelled peptide","associated with cell nuclei at 40 and 60 min, and even more so after 90 min"
C[C@]1(c2nc3c(C(N)=O)cccc3[nH]2)CCCN1 [veliparib],Effect on IGFBP-3 complexes with NONO (immunoblotting after coIP),[8],abolished
same,Effect on increase in IGFBP-3-NONO complexes (PLA),[1]; [13],abolished
same,Effect on increase in IGFBP-3-NONO complexes (PLA),[2]; [13],abolished
same,Effect on loss of γH2AX signal over 4 h recovery (DSB repair),[4],significantly prevented the loss of γH2AX signal
same,Effect on loss of γH2AX signal over 4 h recovery (DSB repair),[5],significantly prevented the loss of γH2AX signal
same,inhibition at 20 µM,"[3]; Homo sapiens, MDA-MB-468",~50%
same,inhibition at 20 µM,"[6]; Homo sapiens, HCC1806",~50%
same,Inhibition of cell survival (colony formation),[9]; cells exposed to 100 nM etoposide,about one-third
same,Inhibition of cell survival (colony formation),[9]; in the absence of etoposide,about one-third
HLKFLNVLSPRG [Peptide #66],Nuclear uptake of peptide,"[7]; 5-TAMRA-labelled peptide, fixed and live cell imaging",rapid nuclear uptake
MEDTLNHLKFLN [compound 64],γH2AX signal (sustained DNA damage) compared to no peptide,[10],low γH2AX signal
same,γH2AX signal (sustained DNA damage) compared to no peptide,[11],low γH2AX signal
TLNHLKFLNVLS [compound 65],γH2AX signal (sustained DNA damage) compared to no peptide,[10],sustained γH2AX signal
same,γH2AX signal (sustained DNA damage) compared to no peptide,[11],sustained γH2AX signal
